Data on 13 compounds can be found in PubChem BioAssay (NCI).

SMILES strings stand for the structures. Where “and” joins values, the source holds several entries; their conditions need not be identical. Equal values may be shown once.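 Results reflect a 48-hour exposure of cells in 96-well plates to compound at five concentrations. GI50 marks 50% less growth. TGI: total growth inhibition.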

Some test systems named below: COLO 205 colon; IGROV1 ovarian; LOX IMVI melanoma; NCI-H23 lung; NCI-H460 lung; OVCAR-3 ovarian; OVCAR-8 ovarian; SF-268 CNS; SF-295 CNS; SNB-75 CNS.
Experiment in all cases: NCI-60 cell line screen, 48 h

For `COc1ccccc1CC(C)N` (stereo not given), the TGI with COLO 205 colon, in the test with IGROV1 ovarian, in the test on LOX IMVI melanoma, in the test on NCI-H23 lung, in the test with NCI-H460 lung and with OVCAR-3 ovarian was more than 100 µM each time. Besides, the TGI with OVCAR-8 ovarian, in the test with SF-268 CNS, with SF-295 CNS and in the test with SNB-75 CNS was more than 100 µM throughout.
`NC(CCOCCP(=O)(O)CCC1C=CC=CC1)C(=O)O` (stereo not given): the TGI with COLO 205 colon, in the test on IGROV1 ovarian, in the test on LOX IMVI melanoma, with NCI-H23 lung, in the test on NCI-H460 lung and in the test with OVCAR-3 ovarian was more than 100 µM throughout. Further, the TGI in the test with OVCAR-8 ovarian, in the test with SF-268 CNS, in the test with SF-295 CNS and in the test with SNB-75 CNS was more than 100 µM throughout.
With `S=c1c2[nH]cnc2ncn1CCSC1=NC=NC2=NC=NC21` (stereo not given), the TGI in the test on COLO 205 colon, with IGROV1 ovarian, with LOX IMVI melanoma, with NCI-H23 lung, with NCI-H460 lung and in the test on OVCAR-3 ovarian was more than 100 µM in each case. Also, the TGI in the test with OVCAR-8 ovarian, with SF-268 CNS, in the test on SF-295 CNS and with SNB-75 CNS was more than 100 µM in each case.
In the case of `Nc1ccc(O)c2c1C(=O)c1c(N)ccc(O)c1C2=O`, the TGI in the test with COLO 205 colon, in the test on IGROV1 ovarian, in the test with LOX IMVI melanoma, in the test with NCI-H23 lung, in the test with NCI-H460 lung and in the test on OVCAR-3 ovarian was more than 100 µM each time. Besides, the TGI in the test with OVCAR-8 ovarian, in the test on SF-268 CNS, with SF-295 CNS and in the test with SNB-75 CNS was more than 100 µM each time.
For the compound `CN(CC(=O)O)Cc1c(O)c(Cl)cc(Cl)c1Cl`, the TGI is more than 100 µM in the test with COLO 205 colon; more than 100 µM in the test with IGROV1 ovarian; more than 100 µM in the test with LOX IMVI melanoma; more than 100 µM in the test with NCI-H23 lung; 75.4 µM in the test with NCI-H460 lung; 38.8 µM in the test with OVCAR-3 ovarian. Besides, the TGI with OVCAR-8 ovarian, in the test with SF-268 CNS, in the test with SF-295 CNS and with SNB-75 CNS was more than 100 µM throughout.
As to `Cc1cc2c(c(O)c1-c1c(C)cc(O)c3c1C(=O)C=CC3=O)C(=O)C=CC2=O`, the TGI is 0.656 µM with COLO 205 colon; 5.11 µM with IGROV1 ovarian; 4.21 µM in the test with LOX IMVI melanoma; 18.4 µM in the test on NCI-H23 lung; 44.5 µM in the test on NCI-H460 lung; 5.99 µM in the test on OVCAR-3 ovarian. The TGI in the test on SF-295 CNS was determined as 33.1 µM; in the test on SNB-75 CNS, 84.9 µM.
As to `CCN(CC)CC[n+]1ccc2c(C)c3[nH]c4ccc(O)cc4c3c(C)c2c1`, the GI50 was 2600 nM in the test with COLO 205 colon; 4.79 µM with IGROV1 ovarian; 6.73 µM in the test with LOX IMVI melanoma; 2450 nM in the test on NCI-H23 lung; 147 nM with NCI-H460 lung; 6.62 µM with OVCAR-3 ovarian. For the same compound, the GI50 in the test with OVCAR-8 ovarian is 1230 nM; with SF-268 CNS it was 685 nM; in the test with SNB-75 CNS, 523 nM. Further, the TGI in the test on COLO 205 colon is 17.4 µM and 31 µM; in the test with IGROV1 ovarian, 38.6 µM and 73 µM; in the test with LOX IMVI melanoma it was 44 µM and 58.3 µM; in the test with NCI-H23 lung it was 25.1 µM and 22.5 µM; with NCI-H460 lung, 13.3 µM and 3.45 µM; in the test on OVCAR-3 ovarian it was 57.9 µM and 51.9 µM. The TGI in the test on OVCAR-8 ovarian was 44.6 µM and 13.3 µM; in the test on SF-268 CNS it was 7.3 µM and 7.53 µM; in the test on SF-295 CNS, 30.1 µM and 28.4 µM; in the test with SNB-75 CNS, 7.51 µM and 2.83 µM.
Consider `O=C(NC(Cc1ccc(Br)cc1)C(=O)O)c1ccc(I)cc1` (stereo not given), for which the TGI in the test on COLO 205 colon, in the test with IGROV1 ovarian, in the test on LOX IMVI melanoma, in the test on NCI-H23 lung, in the test on NCI-H460 lung and with OVCAR-3 ovarian was more than 100 µM in each case. Further, the TGI in the test with OVCAR-8 ovarian, with SF-268 CNS, in the test on SF-295 CNS and with SNB-75 CNS was more than 100 µM throughout.
Take `CSc1nc(CO)c(CO)n1C`: the TGI in the test on COLO 205 colon, with IGROV1 ovarian, in the test on LOX IMVI melanoma, in the test on NCI-H23 lung, in the test with NCI-H460 lung and in the test with OVCAR-3 ovarian was more than 100 µM in each case. In addition, the TGI in the test with OVCAR-8 ovarian, in the test with SF-268 CNS, with SF-295 CNS and with SNB-75 CNS was more than 100 µM in each case.
Take `CNC1Cc2c[nH]c3cccc(c23)C12C=C(C)C(=O)O2` (stereo not given): the TGI with COLO 205 colon, in the test on IGROV1 ovarian, in the test with LOX IMVI melanoma, with NCI-H23 lung, in the test with NCI-H460 lung and with OVCAR-3 ovarian was more than 100 µM each time. For the same compound, the TGI with OVCAR-8 ovarian, in the test with SF-268 CNS, in the test with SF-295 CNS and in the test with SNB-75 CNS was more than 100 µM throughout.
With `CC1C(=O)CC(c2cccs2)N(N=O)C1c1cccs1` (stereo not given), the TGI in the test on COLO 205 colon is more than 100 µM; in the test with IGROV1 ovarian, more than 100 µM; with LOX IMVI melanoma it was more than 100 µM; in the test with NCI-H23 lung, more than 100 µM; in the test with NCI-H460 lung, more than 100 µM; with OVCAR-3 ovarian it was more than 79.5 µM. For the same compound, the TGI is more than 100 µM with OVCAR-8 ovarian, more than 100 µM in the test with SF-268 CNS, more than 100 µM with SF-295 CNS and more than 74 µM in the test with SNB-75 CNS.
As to `Clc1cc(Cl)c2cc3cccc[n+]3cc2c1Cl`, the TGI in the test on COLO 205 colon stood at 28.1 µM; in the test with LOX IMVI melanoma, 34.7 µM; in the test with NCI-H23 lung, 30.4 µM; in the test with NCI-H460 lung, 32.2 µM; in the test on OVCAR-3 ovarian, 26.8 µM; in the test with OVCAR-8 ovarian, 31 µM. The figures for the TGI in the test with SF-268 CNS, with SF-295 CNS and in the test on SNB-75 CNS were 26.5 µM, 39.8 µM and 24.7 µM, respectively.
For the compound `CCCCCCCCCCCCCC1=C(O)C(=O)C(CC2=C(O)C(=O)C(CCCCCCCCCCCCC)=C(O)C2=O)=C(O)C1=O`, the TGI in the test on COLO 205 colon, in the test with IGROV1 ovarian, in the test with LOX IMVI melanoma, in the test with NCI-H23 lung, in the test on OVCAR-3 ovarian and with OVCAR-8 ovarian was more than 100 µM in each case. The TGI with SF-268 CNS was more than 100 µM; with SF-295 CNS it was more than 100 µM; with SNB-75 CNS, 83 µM.
